# Assay results as given in patent publication US11766467B2, “Methods of treating wounds using cathepsin K inhibitors” (University of Wyoming, priority 2017, dated 2023).
# What was measured:
# [1] = test system: full-thickness wounds in diabetic pigs; assay: porcine diabetic (streptozotocin) wound healing model, full-thickness wounds, intradermal injections; format: in vivo; settings: for wound closure: both the higher (300 ng/mm^2) and lower (30 ng/mm^2) doses; for wound closure / wound healing (in words): diabetic pigs
# Method: Odanacatib is a potent and selective inhibitor of cathepsin K and can be administered to promote wound healing in diabetic pigs. Pigs (3-4 months old) were rendered diabetic with intravenous injection of streptozotocin (75 mg/Kg). Four weeks following streptozotocin injections 6-10 full-thickness (one-inch square, ˜[…] thickness) wounds were created in two columns on each side of the dorsal thoracolumbar midline. […] Wounds were photographed prior to treatment and analyzed for wound closure rates.
# Data are expressed as mean±SEM (n=8 for vehicle and 6 each for odanacatib treatment). […] Because some values are missing as we had euthanized one pig from each group on day 14 for molecular analysis, the data were analyzed by fitting a mixed model, rather than by repeated measures ANOVA. […]
# [2] = test system: excisional skin wounds in genetically diabetic db/db mice; assay: excisional skin wound healing in genetically diabetic db/db mice, topical inhibitor; format: in vivo; settings: treated along the circumference of the wound
# Method: FIG. 5 illustrates the effect of a topically delivered pharmacological inhibitor of cathepsin K on wound healing in genetically diabetic mice. Excisional skin wounds were created in genetically diabetic db/db mice and the wounds were treated along the circumference of the wounds with cathepsin K inhibitor II or vehicle. Wound healing was evaluated by measuring the wound closure rate and histomorphometric analysis. […] In contrast, wounds in the vehicle treated group remain unhealed during this time period. Heterozygous (db/db^+/−) mice were used as controls in these studies.
# [3] = test system: cultured human fibroblasts; assay: in vitro monolayer wound-healing assay (cell migration under high glucose); format: cell-based; settings: high glucose 25 mM, 100 ng/ml inhibitor, 5 μg/ml hydroxyurea, 72 h after wounding
# Method: Referring now to FIGS. 1A-1B, the in vitro monolayer wound-healing assay mimics cell migration during wound healing. An in vitro monolayer wound-healing assay in cultured human fibroblasts was used to test whether pharmacological inhibition of cathepsin K affected cell migration under high-glucose (25 mM) conditions. Mannitol was included to control for osmotic pressure and hydroxyurea to eliminate the potential effects of cell proliferation.
# Referring again to FIGS. 1A-1B, inhibition of cathepsin reverses the inhibitory effect of high glucose (HG) on cell migration in a monolayer wound-healing assay. Confluent human fibroblasts were serum starved and subjected to a media containing low (5 mM, LG) or high (25 mM, HG) glucose. The cell monolayer was wounded with a linear scratch using a sterile pipette tip and treated with 100 ng/ml of cathepsin K inhibitor-II in the presence of 5 μg/ml hydroxyurea. At 0 time (upper left panel) and 72 h (lower left panel) after wounding, the cells were photographed using an inverted microscope equipped with a digital camera. Scale bar=600 μm. FIG. 1A. Representative phase-contrast images for each treatment group. FIG. 1B. Bar graph represents the percentage wound closure 72 h after wounding as measured using the NIH Image J software and represented as mean±SEM, n=6, *p<0.01 compared to LG; **p<0.05 compared to LG.
compound,measurement,setting,value
"CC(C)C[C@H](NC(=O)OCc1ccccc1)C(=O)NNC(=O)NNC(=O)[C@H](CC(C)C)NC(=O)[C@H](Cc1ccccc1)NC(=O)OC(C)(C)C [CatKI-II, 1-(N-Benzyloxycarbonyl-leucyl)-5-(N-Boc-phenylalanyl-leucyl) carbohydrazide]","Tukey's multiple comparisons test, Summary","[1]; Table 1, D 3, 30 vs. 300 ng/mm^2",ns
same,"Tukey's multiple comparisons test, Summary","[1]; Table 1, D 3, Vehicle vs. 300 ng/mm^2",ns
same,"Tukey's multiple comparisons test, Summary","[1]; Table 1, D 7, 30 vs. 300 ng/mm^2",ns
same,"Tukey's multiple comparisons test, Summary","[1]; Table 1, D 7, Vehicle vs. 300 ng/mm^2",ns
same,"Tukey's multiple comparisons test, Summary","[1]; Table 1, D 7, Vehicle vs. 30 μg/mm^2",ns
same,"Tukey's multiple comparisons test, Summary","[1]; Table 1, D 14, Vehicle vs. 300 ng/mm^2",ns
same,"Tukey's multiple comparisons test, Summary","[1]; Table 1, D 21, Vehicle vs. 300 ng/mm^2",ns
same,"Tukey's multiple comparisons test, Summary","[1]; Table 2, D 3, 30 vs. 300 ng/mm^2",ns
same,"Tukey's multiple comparisons test, Summary","[1]; Table 2, D 3, Vehicle vs. 300 ng/mm^2",ns
same,"Tukey's multiple comparisons test, Summary","[1]; Table 2, D 7, 30 vs. 300 ng/mm^2",ns
same,"Tukey's multiple comparisons test, Summary","[1]; Table 2, D 7, Vehicle vs. 300 ng/mm^2",ns
same,"Tukey's multiple comparisons test, Summary","[1]; Table 2, D 7, Vehicle vs. 30 μg/mm^2",ns
same,"Tukey's multiple comparisons test, Summary","[1]; Table 2, D 14, Vehicle vs. 300 ng/mm^2",ns
same,"Tukey's multiple comparisons test, Summary","[1]; Table 2, D 21, Vehicle vs. 300 ng/mm^2",ns
same,wound closure,[1]; day 21 post-wounding,~93%
same,wound closure / wound healing (in words),[1],facilitate wound closure
same,wound closure / wound healing (in words),[1]; listed as Cathepsin K inhibitor II,promotes wound healing
same,wound area: improvement in wound healing,"[1]; lower dose 30 ng/mm^2/wound, day 21 post-wounding",statistically significant improvement in wound healing compared to both vehicle and the higher dose
same,wound resolution,[2]; day 12,significant resolution of wound
same,wound resolution,[2]; day 15,almost complete resolution
same,fibroblast migration / monolayer wound closure,[3],increased migration beyond that observed in the cells treated with a low-glucose media
CC(C)(F)C[C@H](N[C@@H](c1ccc(-c2ccc(S(C)(=O)=O)cc2)cc1)C(F)(F)F)C(=O)NC1(C#N)CC1 [odanacatib],wound closure,[1]; day 21 post-wounding,~93%
